Results as given in paper PMC8395767, “Worsening of the Toxic Effects of (±)Cis-4,4′-DMAR Following Its Co-Administration with (±)Trans-4,4′-DMAR: Neuro-Behavioural, Physiological, Immunohistochemical and Metabolic Studies in Mice” (International Journal of Molecular Sciences, 2021).

How the values were obtained:
Type in all cases: in vivo, mice
[1] = Excretion studies on urine samples (LC-MS/MS)
Description: To study the possible metabolic interaction between cis and trans isomers, we chose to evaluate urinary excretion and metabolic profile of 4,4′-DMAR, as this allowed us to study and correlate physiological and neuro-behavioural responses in the same individual. For the in vivo studies, three different groups of mice were selected. To the first group, a dose of 10 mg/kg of cis-4,4′-DMAR was administered. To the second group, a dose of 10 mg/kg of both cis and trans-4,4′-DMAR was administered. The third group was selected for the collection of urine blank samples. Urine samples were collected in the range of 0–6 h after 4,4′-DMAR or vehicle were intraperitoneally injected.
Urine samples were treated and analysed through a protocol already used by our group for the analysis of the excretion of stimulant drugs in mice. Briefly, our protocol allowed the conversion of conjugated metabolites (i.e., sulfo- and glucorono-conjugates) to phase I metabolites after two hydrolysis steps. […] The residue was reconstituted with 50 μL of mobile phase and analysed with a targeted LC-MS/MS technique. In details, samples were analysed using an Agilent 1200 series HPLC instrument equipped with a SUPELCO Discovery C18 column (15 cm × 2.1 mm × 5 µm) coupled with an API4000 QqQ mass spectrometer (Sciex, 500 Old Connecticut Path, Framingham, MA, USA). […]

Smac/DIABLO = experiment: Immunohistochemistry, frontal cortex: Smac/DIABLO
Source text: (§1) Following the acute death or the sacrifice of the animals (after 5-h observation period by dislocation of the spine), brains were taken. These were fixed in 4% buffered formalin and then sampled and incorporated into the paraffin (Leica ASP300 processor, Histoline TEC2900 incorporator; Leica Microsystems Srl, Buccinasco, Milano, Italy). Subsequently, the cut (performed with the Leica HistoCore autocut microtome; Leica Microsystems Srl, Buccinasco, Milano, Italy) was designed to create sections with a thickness of 5 µm for each sample.
(§2) On 5-µm-thick paraffined […] sections, we evaluated the expression of a panel of markers: heat shock proteins (HSP27, HSP70, HSP90), SMAC/DIABLO, NF-kB, iNOS, NOX-2, NT, 8-OHDG.
(§3) We used a detection system composed of a biotinylated secondary antibody and HRP-conjugated streptavidin (4plus HRP Universal Detection, Biocare Medical). 3′-,3Diaminobenzidine (DAB) and H2O2 (Betazoid DAB Chromogen Kit, Biocare Medical, Concord, CA, USA) were used as chromogen/substrate. […] In the pictures (sections of the frontal cortex; Figure 3, Figure 4 and Figure 5) to evaluate the variation in the expression of markers (Smac, NOX2, iNOS, 8-OHdG, NT, HSP27, HSP70, HSP90) following treatments, the change in intensity of brown colour (staining of the immunohistochemical technique) in the control and treated tissue was measured. Quantification of Smac, NOX2, iNOS, 8-OHdG, NT, HSP27, HSP70 and HSP90 positive-stained areas was performed by the ImageJ software (imagej.nih.gov/ij/ Accessed date 12 May 2020). […] Positivity was expressed as an extension of the stained analysed area.
(§4) Sweating and salivation were expressed as frequency (e.g., % of animals that developed symptoms); psychomotor agitation was expressed as frequency (% of animals) and duration (total time in mins). Core temperature values were expressed as the difference between control temperature (before injection) and temperature following drug administration (Δ°C). Aggressiveness was expressed as frequency (% of animals which become aggressive) and score (number of bites). […]

iNOS = experiment: Immunohistochemistry, frontal cortex: iNOS
Source text: as §1, §2, §3, §4

HSP70 = experiment: Immunohistochemistry, frontal cortex: HSP70
Source text: as §1, §2, §3, §4

## Cc1ccc(C2OC(N)=NC2C)cc1 (stereo not drawn) [cis-4,4’-DMAR, 4-methyl-5-(4-methylphenyl)-4,5-dihydrooxazol-2-amine]
[1]; co-administered with (±)trans-4,4′-DMAR 10 mg/kg, vs cis alone
  Urinary excretion of the parent compound (normalised to the sum of 4,4′-DMAR and its metabolites, Figure 7B): increase
Smac/DIABLO; 30 and 60 mg/kg, vs control
  Immunoreactivity of Smac/DIABLO in the frontal cortex: increased
Smac/DIABLO; 30 and 60 mg/kg, vs control, listed as (±)cis
  Immunoreactivity of Smac/DIABLO in the frontal cortex: significant increase
iNOS; 60 mg/kg, vs control
  Immunoreactivity of iNOS in the frontal cortex: increased
iNOS; 60 mg/kg, vs control, listed as (±)cis
  Immunoreactivity of iNOS in the frontal cortex: large increase
HSP70; 10 mg/kg alone
  Immunoreactivity of HSP70 in the frontal cortex: ineffective
HSP70; 30 and 60 mg/kg, vs control
  Immunoreactivity of HSP70 in the frontal cortex: increased

## Cc1ccc(C2OC(N)=NC2C)cc1 (stereo not drawn) [trans-4,4’-DMAR, 4-methyl-5-(4-methylphenyl)-4,5-dihydrooxazol-2-amine]
[1]; mice urine
  Phase I/II metabolism: did not exhibit
Smac/DIABLO; 30 mg/kg alone
  Immunoreactivity of Smac/DIABLO in the frontal cortex: ineffective
iNOS; 30 mg/kg alone
  Immunoreactivity of iNOS in the frontal cortex: ineffective
HSP70; 30 mg/kg alone
  Immunoreactivity of HSP70 in the frontal cortex: ineffective
